Experimental data published in US20230399342A1 (Incyte Corporation, priority 2022, published 2023).
pIC50: −log10 of the molar value.

What was measured:
DGKα = DGKα (Homo sapiens (Human), UniProt P23743); experiment: In vitro DGKα inhibition assay (ADP-Glo); format: biochemical; conditions: His-tagged human recombinant enzyme, 0.1 nM DGKα, 50 μM ATP, 20 μM DLG, 90 minute incubation
In short: (§1)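 His-tagged human DGKα (0.1 nM, 50 μM ATP) or DGKζ (0.4 nM, 30 μM ATP), each with 20 μM DLG, in Tris pH 7.5 buffer with CHAPS, Mg2+, Ca2+.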

DGKζ = DGKζ (Homo sapiens (Human), UniProt Q13574); experiment: In vitro DGKζ inhibition assay (ADP-Glo); format: biochemical; conditions: His-tagged human recombinant enzyme, 0.4 nM DGK, 30 μM ATP, 20 μM DLG, 90 minute incubation
In short: as §1

Chain of DGKζ (Q13574 whole entry): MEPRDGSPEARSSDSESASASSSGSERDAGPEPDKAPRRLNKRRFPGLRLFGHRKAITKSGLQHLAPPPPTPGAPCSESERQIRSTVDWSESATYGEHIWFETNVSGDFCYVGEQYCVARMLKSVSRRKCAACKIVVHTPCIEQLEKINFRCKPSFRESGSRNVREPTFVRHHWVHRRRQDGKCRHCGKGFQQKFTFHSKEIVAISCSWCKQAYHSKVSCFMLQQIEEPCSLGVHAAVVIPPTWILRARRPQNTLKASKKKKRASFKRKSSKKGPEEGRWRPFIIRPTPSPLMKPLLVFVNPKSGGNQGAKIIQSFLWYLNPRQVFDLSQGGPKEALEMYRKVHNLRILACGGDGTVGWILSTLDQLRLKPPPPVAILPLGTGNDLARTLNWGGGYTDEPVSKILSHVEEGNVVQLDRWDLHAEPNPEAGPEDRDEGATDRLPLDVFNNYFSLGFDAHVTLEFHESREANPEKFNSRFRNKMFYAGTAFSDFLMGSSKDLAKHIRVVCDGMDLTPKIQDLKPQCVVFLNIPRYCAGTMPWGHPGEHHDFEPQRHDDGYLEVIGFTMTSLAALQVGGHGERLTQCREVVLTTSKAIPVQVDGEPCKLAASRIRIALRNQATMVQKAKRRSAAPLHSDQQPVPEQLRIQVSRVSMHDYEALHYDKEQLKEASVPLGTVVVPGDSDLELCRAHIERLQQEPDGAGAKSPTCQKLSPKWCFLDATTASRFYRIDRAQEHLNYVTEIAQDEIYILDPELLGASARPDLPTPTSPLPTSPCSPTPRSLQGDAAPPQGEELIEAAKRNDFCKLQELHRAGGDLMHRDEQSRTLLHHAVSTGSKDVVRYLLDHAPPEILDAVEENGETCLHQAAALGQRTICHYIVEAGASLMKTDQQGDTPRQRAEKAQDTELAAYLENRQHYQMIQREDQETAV
Chain of DGKα (P23743 whole entry): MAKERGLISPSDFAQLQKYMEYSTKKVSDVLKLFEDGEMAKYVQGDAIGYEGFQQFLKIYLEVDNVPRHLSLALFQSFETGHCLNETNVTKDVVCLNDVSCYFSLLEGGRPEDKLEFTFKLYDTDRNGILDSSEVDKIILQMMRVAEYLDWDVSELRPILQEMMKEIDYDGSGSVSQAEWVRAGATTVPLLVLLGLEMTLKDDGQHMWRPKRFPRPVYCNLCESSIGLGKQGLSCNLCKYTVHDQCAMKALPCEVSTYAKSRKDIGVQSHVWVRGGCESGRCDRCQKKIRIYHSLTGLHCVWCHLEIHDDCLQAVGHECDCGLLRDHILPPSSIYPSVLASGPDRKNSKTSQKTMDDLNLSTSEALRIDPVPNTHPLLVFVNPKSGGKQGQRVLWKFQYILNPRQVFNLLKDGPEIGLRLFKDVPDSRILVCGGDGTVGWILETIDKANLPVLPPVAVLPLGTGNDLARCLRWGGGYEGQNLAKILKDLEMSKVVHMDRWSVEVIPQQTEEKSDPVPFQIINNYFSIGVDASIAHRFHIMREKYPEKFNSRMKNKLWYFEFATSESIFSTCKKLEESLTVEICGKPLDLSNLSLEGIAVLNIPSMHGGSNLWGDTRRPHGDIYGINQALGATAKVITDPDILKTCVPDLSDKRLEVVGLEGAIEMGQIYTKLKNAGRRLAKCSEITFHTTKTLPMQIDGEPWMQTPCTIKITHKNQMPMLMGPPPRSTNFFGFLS

Work on `Cc1nc2c(N3C[C@@H](C)N([C@H](c4ccc(Cl)cc4)C(C)C)C[C@@H]3C)nc3nncn3c2n1C[C@@H]1CCCO1` [Example 88, 4-((2S,5R)-4-((S)-1-(4-Chlorophenyl)-2-methylpropyl)-2,5-dimethylpiperazin-1-yl)-2-methyl-1-(((S)-tetrahydrofuran-2-yl)methyl)-1H-[1,2,4]triazolo[3,4-b]purine] yielded a pIC50 (DGKα) of at least 7.70 and a pIC50 (DGKζ) of at least 7.70.

Molecule `C[C@@H]1CN(c2nc3nncn3c3c2ncn3CC2CC2)[C@@H](C)CN1[C@@H](c1ccc(F)cc1)c1ccc(OC(F)(F)F)cn1` [Example 24, 1-(Cyclopropylmethyl)-4-((2S,5R)-4-((S)-(4-fluorophenyl)(5-(trifluoromethoxy)pyridin-2-yl)methyl)-2,5-dimethylpiperazin-1-yl)-1H-[1,2,4]triazolo[3,4-b]purine] has a pIC50 (DGKα) of at least 7.70 and a pIC50 (DGKζ) of at least 7.70.

`CC[C@H]1CN(C(c2ccc(F)cc2)c2ccc(F)cc2)[C@H](CC)CN1c1nc2nncn2c2c1ncn2CC1CC1` [Example 21, 4-((2S,5R)-4-(Bis(4-fluorophenyl)methyl)-2,5-diethylpiperazin-1-yl)-1-(cyclopropylmethyl)-1H-[1,2,4]triazolo[3,4-b]purine] showed a pIC50 (DGKα) of at least 7.70 and a pIC50 (DGKζ) of at least 7.70.

`C[C@@H]1CN(c2nc3nncn3c3c2ncn3CCN(C)C)[C@@H](C)CN1C(c1ccc(C(F)(F)F)cc1)[C@H]1C[C@H](C(F)(F)F)C1` (stereo partly drawn) [Example 116, 2-(4-((2S,5R)-2,5-Dimethyl-4-(((trans)-3-(trifluoromethyl)cyclobutyl)(4-(trifluoromethyl)phenyl)methyl)piperazin-1-yl)-1H-[1,2,4]triazolo[3,4-b]purin-1-yl)-N,N-dimethylethan-1-amine] was tested, and the pIC50 (DGKα) was at least 7.70 and the pIC50 (DGKζ) was at least 7.70.

With `CC[C@@H]1CN(c2nc3nncn3c3c2nc(C)n3C[C@@H]2CCCO2)[C@@H](C)CN1[C@@H](c1ccc(OC(F)F)cc1)C(C)C` [Example 127, 4-((2S,5R)-4-((R)-1-(4-(difluoromethoxy)phenyl)-2-methylpropyl)-5-ethyl-2-methylpiperazin-1-yl)-2-methyl-1-(((S)-tetrahydrofuran-2-yl)methyl)-1H-[1,2,4]triazolo[3,4-b]purine] the pIC50 (DGKα) was at least 7.70 and the pIC50 (DGKζ) was at least 7.70.

In the case of `C[C@@H]1CN(c2nc3nncn3c3c2ncn3CCN(C)C)[C@@H](C)CN1C(c1ccc(F)cc1)c1ccc(F)cc1` [Example 28, 2-(4-((2S,5R)-4-(Bis(4-fluorophenyl)methyl)-2,5-dimethylpiperazin-1-yl)-1H-[1,2,4]triazolo[3,4-b]purin-1-yl)-N,N-dimethylethan-1-amine], the pIC50 (DGKα) was at least 7.70 and the pIC50 (DGKζ) was at least 7.70.

With `CC[C@@H]1CN(c2nc3nncn3c3c2nnn3C[C@@H]2CCCO2)[C@@H](C)CN1C(c1ccc(Cl)cc1)c1ccc(Cl)cc1` [Example 39, 4-((2S,5R)-4-(Bis(4-chlorophenyl)methyl)-5-ethyl-2-methylpiperazin-1-yl)-1-(((S)-tetrahydrofuran-2-yl)methyl)-1H-[1,2,3]triazolo[4,5-e][1,2,4]triazolo[4,3-a]pyrimidine] the pIC50 (DGKα) was at least 7.70 and the pIC50 (DGKζ) was at least 7.70.

In the case of `Cc1nc2c(N3C[C@@H](C)N([C@@H](c4ccc(Cl)c(Cl)c4)C4CC(F)(F)C4)C[C@@H]3C)nc3nncn3c2n1C[C@@H]1CCCO1` [Example 49, 4-((2S,5R)-4-((R)-(3,4-dichlorophenyl)(3,3-difluorocyclobutyl)methyl)-2,5-dimethylpiperazin-1-yl)-2-methyl-1-(((S)-tetrahydrofuran-2-yl)methyl)-1H-[1,2,4]triazolo[3,4-b]purine], the pIC50 (DGKα) was at least 7.70 and the pIC50 (DGKζ) was at least 7.70.

Molecule `CC[C@@H]1CN(c2nc3nncn3c3c2nnn3C[C@@H]2CCCO2)[C@@H](C)CN1C(c1ccc(F)cc1)c1ccc(F)cc1` [Example 30, 4-((2S,5R)-4-(Bis(4-fluorophenyl)methyl)-5-ethyl-2-methylpiperazin-1-yl)-1-(((S)-tetrahydrofuran-2-yl)methyl)-1H-[1,2,3]triazolo[4,5-e][1,2,4]triazolo[4,3-a]pyrimidine] has a pIC50 (DGKα) of at least 7.70 and a pIC50 (DGKζ) of at least 7.70.

`CC[C@H]1CN(C(c2ccc(F)cc2)c2ccc(F)cc2)[C@H](CC)CN1c1nc2nncn2c2c1nnn2C[C@H]1CCCO1` [Example 33, 4-((2S,5R)-4-(Bis(4-fluorophenyl)methyl)-2,5-diethylpiperazin-1-yl)-1-(((R)-tetrahydrofuran-2-yl)methyl)-1H-[1,2,3]triazolo[4,5-e][1,2,4]triazolo[4,3-a]pyrimidine] showed a pIC50 (DGKα) of at least 7.70 and a pIC50 (DGKζ) of at least 7.70.

Molecule `Cc1nc2c(N3C[C@@H](C)N(C(c4ccc(Br)cc4)C4CC(F)(F)C4)C[C@@H]3C)nc3nncn3c2n1C[C@@H]1CCCO1` (stereo partly drawn) [Example 61, 4-((2S,5R)-4-((4-Bromophenyl)(3,3-difluorocyclobutyl)methyl)-2,5-dimethylpiperazin-1-yl)-2-methyl-1-(((S)-tetrahydrofuran-2-yl)methyl)-1H-[1,2,4]triazolo[3,4-b]purine] has a pIC50 (DGKα) of at least 7.70 and a pIC50 (DGKζ) of at least 7.70.

With `Cc1nc2c(N3C[C@@H](C)N(C(c4ccc(Cl)cc4)C4CC(F)(F)C4)C[C@@H]3C)nc3nncn3c2n1C[C@@H]1CCCO1` (stereo partly drawn) [Example 60, 4-((2S,5R)-4-((4-Chlorophenyl)(3,3-difluorocyclobutyl)methyl)-2,5-dimethylpiperazin-1-yl)-2-methyl-1-(((S)-tetrahydrofuran-2-yl)methyl)-1H-[1,2,4]triazolo[3,4-b]purine] the pIC50 (DGKα) was at least 7.70 and the pIC50 (DGKζ) was at least 7.70.

`Cc1nc2c(N3C[C@@H](C)N([C@H](c4cccc(Cl)c4)C(C)C)C[C@@H]3C)nc3nncn3c2n1C[C@@H]1CCCO1` [Example 96, 4-((2S,5R)-4-((S)-1-(3-Chlorophenyl)-2-methylpropyl)-2,5-dimethylpiperazin-1-yl)-2-methyl-1-(((S)-tetrahydrofuran-2-yl)methyl)-1H-[1,2,4]triazolo[3,4-b]purine] gave a pIC50 (DGKα) of at least 7.70 and a pIC50 (DGKζ) of at least 7.70.

With `CC[C@@H]1CN(c2nc3nncn3c3c2nc(C)n3C[C@@H]2CCCO2)[C@@H](C)CN1[C@@H](c1ccc(C(F)(F)F)cc1)C(C)C` [Example 129, 4-((2S,5R)-5-Ethyl-2-methyl-4-((R)-2-methyl-1-(4-(trifluoromethyl)phenyl)propyl)piperazin-1-yl)-2-methyl-1-(((S)-tetrahydrofuran-2-yl)methyl)-1H-[1,2,4]triazolo[3,4-b]purine] the pIC50 (DGKα) was at least 7.70 and the pIC50 (DGKζ) was at least 7.70.

Molecule `CC[C@H]1CN(C(c2ccc(F)cc2)c2ccc(F)cc2)[C@H](CC)CN1c1nc2nncn2c2c1ncn2CCN(C)C` [Example 35, 2-(4-((2S,5R)-4-(Bis(4-fluorophenyl)methyl)-2,5-diethylpiperazin-1-yl)-1H-[1,2,4]triazolo[3,4-b]purin-1-yl)-N,N-dimethylethan-1-amine] has a pIC50 (DGKα) of at least 7.70 and a pIC50 (DGKζ) of at least 7.70.

Molecule `CC[C@@H]1CN(c2nc3nncn3c3c2nc(C)n3C[C@@H]2CCCO2)[C@@H](C)CN1C(c1ccc(Cl)cc1)c1ccc(Cl)cc1` [Example 41, 4-((2S,5R)-4-(Bis(4-chlorophenyl)methyl)-5-ethyl-2-methylpiperazin-1-yl)-2-methyl-1-(((S)-tetrahydrofuran-2-yl)methyl)-1H-[1,2,4]triazolo[3,4-b]purine] has a pIC50 (DGKα) of at least 7.70 and a pIC50 (DGKζ) of at least 7.70.

`Cc1nc2c(N3C[C@@H](C)N(C(c4ccc(F)c(Cl)c4)[C@H]4C[C@H](C(F)(F)F)C4)C[C@@H]3C)nc3nncn3c2n1C[C@@H]1CCCO1` (stereo partly drawn) [Example 113, 4-((2S,5R)-4-((3-Chloro-4-fluorophenyl)((trans)-3-(trifluoromethyl)cyclobutyl)methyl)-2,5-dimethylpiperazin-1-yl)-2-methyl-1-(((S)-tetrahydrofuran-2-yl)methyl)-1H-[1,2,4]triazolo[3,4-b]purine] was tested, and the pIC50 (DGKα) was at least 7.70 and the pIC50 (DGKζ) was at least 7.70.

In the case of `C[C@H]1CN(C(c2ccc(F)cc2)c2ccc(F)cc2)[C@H](CC#N)CN1c1nc2nncn2c2c1ncn2C` [Example 16, 2-((2R,5S)-1-(Bis(4-fluorophenyl)methyl)-5-methyl-4-(1-methyl-1H-[1,2,4]triazolo[3,4-b]purin-4-yl)piperazin-2-yl)acetonitrile], the pIC50 (DGKα) was at least 7.70 and the pIC50 (DGKζ) was at least 7.70.

With `Cc1nc2c(N3C[C@@H](C)N([C@H](c4ccc(OC(F)F)cc4F)C(C)C)C[C@@H]3C)nc3nncn3c2n1C[C@@H]1CCCO1` [Example 75, 4-((2S,5R)-4-((S)-1-(4-(Difluoromethoxy)-2-fluorophenyl)-2-methylpropyl)-2,5-dimethylpiperazin-1-yl)-2-methyl-1-(((S)-tetrahydrofuran-2-yl)methyl)-1H-[1,2,4]triazolo[3,4-b]purine] the pIC50 (DGKα) was at least 7.70 and the pIC50 (DGKζ) was at least 7.70.

Work on `C[C@@H]1CN(c2nc3nncn3c3c2ncn3CCN(C)C)[C@@H](C)CN1C(c1ccc(C(F)(F)F)cn1)c1ccc(C(F)(F)F)cn1` [Example 112, 2-(4-((2S,5R)-4-(Bis(5-(trifluoromethyl)pyridin-2-yl)methyl)-2,5-dimethylpiperazin-1-yl)-1H-[1,2,4]triazolo[3,4-b]purin-1-yl)-N,N-dimethylethan-1-amine] yielded a pIC50 (DGKα) of at least 7.70 and a pIC50 (DGKζ) of at least 7.70.

In the case of `C[C@@H]1CN(c2nc3nncn3c3c2cnn3C)[C@@H](C)CN1C(c1ccc(F)cc1)c1ccc(F)cc1` [Example 6, 4-((2S,5R)-4-(Bis(4-fluorophenyl)methyl)-2,5-dimethylpiperazin-1-yl)-1-methyl-1H-pyrazolo[4,3-e][1,2,4]triazolo[4,3-a]pyrimidine], the pIC50 (DGKα) was at least 7.70 and the pIC50 (DGKζ) was under 5.70.

`Cc1nc2c(N3C[C@@H](C)N([C@H](c4ccc(F)c(F)c4)C4CC(F)(F)C4)C[C@@H]3C)nc3nncn3c2n1C[C@@H]1CCCO1` [Example 46, 4-((2S,5R)-4-((S)-(3,3-Difluorocyclobutyl)(3,4-difluorophenyl)methyl)-2,5-dimethylpiperazin-1-yl)-2-methyl-1-(((S)-tetrahydrofuran-2-yl)methyl)-1H-[1,2,4]triazolo[3,4-b]purine] was tested, and the pIC50 (DGKα) was at least 7.70 and the pIC50 (DGKζ) was at least 7.70.
